Read-outs that look alike come from different tables or passages of the source. Where a SMILES comes first, the peptide text is derived from it. Bridges are numbered along the chain shown (N, C = ends). [ ]: non-standard residue; d: D form. The star is where a group is joined. Acetyl(4-DOTA-piperazinyl) = O=C(O)CN1CCN(CC(=O)O)CCN(CC(=O)N2CCN(CC(=O)*)CC2)CCN(CC(=O)O)CC1; DOTA = O=C(O)CN1CCN(CC(=O)O)CCN(CC(=O)*)CCN(CC(=O)O)CC1; Pro(cis-4-F) = O=C(O)[C@@H]1C[C@H](F)CN1; Dopa = N[C@@H](Cc1ccc(O)c(O)c1)C(=O)O; Hyp = O=C(O)[C@@H]1C[C@@H](O)CN1; Pentanoyl(4-Me) = CC(C)CCC(=O)*; Cit = NC(=O)NCCC[C@H](N)C(=O)O; Gly(cPr) = N[C@H](C(=O)O)C1CC1; Butoxycarbonyl = CCCCOC(=O)*; Nle = CCCC[C@H](N)C(=O)O; Orn = NCCC[C@H](N)C(=O)O; Dab = NCC[C@H](N)C(=O)O; Nva = CCC[C@H](N)C(=O)O; Hexanoyl = CCCCCC(=O)*; Pentanoyl = CCCCC(=O)*; βAla = NCCC(=O)O
Columns and labels:
human uPAR (uPAR-Fc) = target: T1, human uPAR (uPAR-Fc) (Homo sapiens, UniProt Q03405); experiment: Surface plasmon resonance (SPR) assay, single cycle kinetics; assay type: binding; details: pKD category for uPAR SPR activity assay, uPAR-Fc on Protein A-Chip, 25°C, read-out: pKD CAT (converted)
T1 construct: comprising amino acids Leu23-Arg303 according to UniProt entry Q03405.1; purchased R&D Systems 10378-UK-100
In short: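 uPAR-Fc (Leu23-Arg303 extracellular domains, human IgG1 Fc) captured on Protein A chip to ~2000 RU; single-cycle kinetics at 25°C in HEPES running buffer pH 7.4 with 0.1% DMSO. KD from double-referenced sensorgrams fitted to 1:1 Langmuir model, reported as pKD.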

[1] = target: T2, uPAR-expressing HEC-265 human endometrial adenocarcinoma cells (Homo sapiens, UniProt Q03405); experiment: Competitive FACS binding assay; details: pIC50 category of FACS binding
T2 construct: Cell surface uPAR-expressing HEC-265 human endometrial adenocarcinoma cells; host or cells: HEC-265
In short: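 Competitive displacement of a 10 nM biotinylated peptide from HEC-265 cells (1 h, 4 °C, PBS/1% BSA), detected via APC-streptavidin by flow cytometry. pIC50 from four-parameter logistic fit of median fluorescence versus concentration.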

T1 sequence (Q03405 23-303): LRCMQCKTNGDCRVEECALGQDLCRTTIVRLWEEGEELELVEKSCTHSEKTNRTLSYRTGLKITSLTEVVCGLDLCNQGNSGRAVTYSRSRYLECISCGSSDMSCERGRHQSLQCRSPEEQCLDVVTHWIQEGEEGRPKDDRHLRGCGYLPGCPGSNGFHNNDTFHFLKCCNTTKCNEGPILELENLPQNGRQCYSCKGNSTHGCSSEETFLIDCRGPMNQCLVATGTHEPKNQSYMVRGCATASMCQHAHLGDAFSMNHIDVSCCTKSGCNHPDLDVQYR
T2 sequence (Q03405 23-335): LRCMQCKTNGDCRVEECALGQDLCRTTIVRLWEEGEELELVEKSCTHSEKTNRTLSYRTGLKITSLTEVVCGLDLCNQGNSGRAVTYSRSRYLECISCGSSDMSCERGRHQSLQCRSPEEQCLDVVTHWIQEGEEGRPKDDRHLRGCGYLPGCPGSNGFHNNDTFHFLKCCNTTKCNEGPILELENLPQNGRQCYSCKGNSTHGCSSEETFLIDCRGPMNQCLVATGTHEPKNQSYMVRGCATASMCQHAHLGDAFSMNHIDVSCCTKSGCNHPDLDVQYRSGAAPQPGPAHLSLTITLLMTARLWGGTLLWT

Row | SMILES | Kd (human uPAR (uPAR-Fc); single cycle kinetics) [nM] | IC50 [1] [nM] | Kd (human uPAR (uPAR-Fc)) [nM]
1 | CCCC[C@@H]1NC(=O)[C@H](CCCNC(=N)N)NC(=O)[C@@H](NC(=O)[C@H](CC(C)C)NC(=O)[C@H](CC(=O)O)NC(C)=O)CSSC[C@@H](C(N)=O)NC(=O)[C@H](CC(C)C)NC(=O)[C@H]([C@@H](C)CC)NC(=O)[C@@H]2CCCN2C(=O)[C@@H]2CCCN2C(=O)[C@H](Cc2ccccc2)NC(=O)[C@H](Cc2ccc(O)cc2)NC1=O [UPAR-431, Ac-Asp-Leu-[Cys-Arg-Nle-Tyr-Phe-Pro-Pro-Ile-Leu-Cys]-NH2] (Ac-DLCR[Nle]YFPPILC-NH2; disulfide 3-12) | < 1.58 | ≤ 10 | 
2 | CC(C)CCC(=O)N[C@H]1CSSC[C@@H](C(N)=O)NC(=O)[C@H](CC(C)C)NC(=O)[C@H](C2CC2)NC(=O)[C@@H](C)NC(=O)[C@@H]2CCCN2C(=O)[C@H](Cc2ccccc2)NC(=O)[C@H](Cc2ccc(O)cc2)NC(=O)[C@H](CCC(N)=O)NC(=O)[C@H](CCCNC(N)=O)NC1=O [UPAR-187, iHex-[Cys-Cit-Gln-Tyr-Phe-Pro-ala-Cpa-Leu-Cys]-NH2] ({Pentanoyl(4-Me)}-C[Cit]QYFP[dA][Gly(cPr)]LC-NH2; disulfide 1-10) |  | ≥ 126 | > 100
3 | CCCCOC(=O)N[C@H]1CSSC[C@@H](C(N)=O)NC(=O)[C@H](CCC)NC(=O)[C@H]([C@@H](C)CC)NC(=O)[C@@H]2C[C@@H](O)CN2C(=O)[C@@H]2C[C@H](F)CN2C(=O)[C@H](Cc2ccccc2)NC(=O)[C@H](Cc2ccc(O)cc2)NC(=O)[C@H](CCCCNC(=O)CN2CCN(C(=O)CN3CCN(CC(=O)O)CCN(CC(=O)O)CCN(CC(=O)O)CC3)CC2)NC(=O)[C@H]([C@@H](C)O)NC1=O [UPAR-181, Butoc-[Cys-Thr-Lys(DOTA-PPAc)-Tyr-Phe-4Cfp-Hyp-Ile-Nva-Cys]-NH2] (Butoxycarbonyl-CTK(Acetyl(4-DOTA-piperazinyl))YF[Pro(cis-4-F)][Hyp]I[Nva]C-NH2; disulfide 1-10) |  | ≤ 10 | < 1.58
4 | CC[C@H](C)[C@@H]1NC(=O)[C@@H](C)NC(=O)[C@@H]2CCCN2C(=O)[C@H](Cc2ccccc2)NC(=O)[C@H](Cc2ccc(O)cc2)NC(=O)[C@H](CCC(N)=O)NC(=O)[C@H](CCCCNC(=O)CN2CCN(CC(=O)O)CCN(CC(=O)O)CCN(CC(=O)O)CC2)NC(=O)[C@@H](NC(=O)CCC(C)C)CSSC[C@@H](C(N)=O)NC(=O)[C@H](CC(C)C)NC1=O [UPAR-157, iHex-[Cys-Lys(DOTA)-Gln-Tyr-Phe-Pro-ala-Ile-Leu-Cys]-NH2] ({Pentanoyl(4-Me)}-CK(DOTA)QYFP[dA]ILC-NH2; disulfide 1-10) |  | ≤ 10 | < 1.58
5 | CCCCCC(=O)N[C@H]1CSSC[C@@H](C(N)=O)NC(=O)[C@H](CC(C)C)NC(=O)[C@H]([C@@H](C)CC)NC(=O)[C@@H](C)NC(=O)[C@@H]2CCCN2C(=O)[C@H](Cc2ccccc2)NC(=O)[C@H](Cc2ccc(O)cc2)NC(=O)[C@H](CCC(N)=O)NC(=O)[C@H](CCCNC(N)=O)NC1=O [UPAR-475, Hex-[Cys-Cit-Gln-Tyr-Phe-Pro-ala-Ile-Leu-Cys]-NH2] (Hexanoyl-C[Cit]QYFP[dA]ILC-NH2; disulfide 1-10) | < 1.58 | ≤ 10 | 
6 | CCCCC(=O)N[C@H]1CSSC[C@@H](C(=O)NCCC(N)=O)NC(=O)[C@H](CCC)NC(=O)[C@H]([C@@H](C)CC)NC(=O)[C@@H]2C[C@@H](O)CN2C(=O)[C@@H]2CCCN2C(=O)[C@H](Cc2ccccc2)NC(=O)[C@H](Cc2ccc(O)cc2)NC(=O)[C@H](CCC(N)=O)NC(=O)[C@H](CCCNC(N)=O)NC1=O [UPAR-353, Pent-[Cys-Cit-Gln-Tyr-Phe-Pro-Hyp-Ile-Nva-Cys]-Bal-NH2] (Pentanoyl-C[Cit]QYFP[Hyp]I[Nva]C[βAla]-NH2; disulfide 1-10) | 1.58 to 10 | 12.6 to 31.6 | 
7 | CCCCOC(=O)N[C@H]1CSSC[C@@H](C(N)=O)NC(=O)[C@H](CCC)NC(=O)[C@H]([C@@H](C)CC)NC(=O)[C@@H]2C[C@@H](O)CN2C(=O)[C@@H]2C[C@H](F)CN2C(=O)[C@H](Cc2ccccc2)NC(=O)[C@H](Cc2ccc(O)c(O)c2)NC(=O)[C@H](CCNC(=O)CN2CCN(CC(=O)O)CCN(CC(=O)O)CCN(CC(=O)O)CC2)NC(=O)[C@H]([C@@H](C)O)NC1=O [UPAR-456, Butoc-[Cys-Thr-Dab(DOTA)-Dopa-Phe-4Cfp-Hyp-Ile-Nva-Cys]-NH2] (Butoxycarbonyl-CT[Dab](DOTA)[Dopa]F[Pro(cis-4-F)][Hyp]I[Nva]C-NH2; disulfide 1-10) | < 1.58 | ≤ 10 | 
8 | CCCCOC(=O)N[C@H]1CSSC[C@@H](C(N)=O)NC(=O)[C@H](CCC)NC(=O)[C@H]([C@@H](C)CC)NC(=O)[C@@H]2C[C@@H](O)CN2C(=O)[C@@H]2C[C@H](F)CN2C(=O)[C@H](Cc2ccccc2)NC(=O)[C@H](Cc2ccc(O)cc2)NC(=O)[C@H](CCCNC(=O)CN2CCN(CC(=O)O)CCN(CC(=O)O)CCN(CC(=O)O)CC2)NC(=O)[C@H]([C@@H](C)O)NC1=O [UPAR-192, Butoc-[Cys-Thr-Orn(DOTA)-Tyr-Phe-4Cfp-Hyp-Ile-Nva-Cys]-NH2] (Butoxycarbonyl-CT[Orn](DOTA)YF[Pro(cis-4-F)][Hyp]I[Nva]C-NH2; disulfide 1-10) |  | ≤ 10 | < 1.58

Source: EP4610269A1, “UROKINASE PLASMINOGEN ACTIVATOR SURFACE RECEPTOR (UPAR) LIGANDS FOR DIAGNOSTIC OR THERAPEUTIC USE” (3B Pharmaceuticals GmbH, priority 2024, dated 2025)
